From patent US20140187559A1, “INHIBITORS OF THE FIBROBLAST GROWTH FACTOR RECEPTOR” (BLUEPRINT MEDICINES CORPORATION, priority 2012, published 2014) come the findings set out here.

In one series the target is T1, wild type FGFR-4 (Homo sapiens, UniProt P22455).
T1 construct: purchased Carna Biosciences, Inc
Kind of series: FGFR-4 wild type assay at Km (Caliper mobility shift). The following applies: for Ratio FGFR1/FGFR4: [IC50 for FGFR1]/[IC50 for FGFR4]; for IC50: 400 uM ATP, 25 C, 90 minutes, read-out: FGFR4 IC50. The format is biochemical. As for the experimental part:
(§1) In order to assess the activity of chemical compounds against the relevant kinase of interest, the Caliper LifeSciences electrophoretic mobility shift technology platform is utilized. Fluorescently labeled substrate peptide is incubated in the presence dosed levels of compounds, a set concentration of kinase and of ATP, so that a reflective proportion of the peptide is phosphorylated. At the end of the reaction, the mix of phosphorylated (product) and non-phosphorylated (substrate) peptides are passed through the microfluidic system of the Caliper LabChip® EZ Reader II, under an applied potential difference. The presence of the phosphate group on the product peptide provides a difference in mass and charge between the product peptide and the substrate peptide, resulting in a separation of the substrate and product pools in the sample. As the pools pass the LEDS within the instrument, these pools are detected and resolved as separate peaks. The ratio between these peaks therefore reflects the activity of the chemical matter at that concentration in that well, under those conditions.
The reaction was stopped by the addition of 70 ul of Stop buffer (100 mM HEPES pH 7.5, 0.015% Brij 35, 35 mM EDTA and 0.2% of Coating Reagent 3 (Caliper Lifesciences)). The plate was then read on a Caliper LabChip® EZ Reader II (protocol settings: —1.9 psi, upstream voltage—700, downstream voltage—3000, post sample sip 35 s).

The target in a further series is T2, wild type FGFR-1 (Homo sapiens, UniProt P11362).
T2 construct: purchased Carna Biosciences, Inc
T2 sequence (P11362 22-822): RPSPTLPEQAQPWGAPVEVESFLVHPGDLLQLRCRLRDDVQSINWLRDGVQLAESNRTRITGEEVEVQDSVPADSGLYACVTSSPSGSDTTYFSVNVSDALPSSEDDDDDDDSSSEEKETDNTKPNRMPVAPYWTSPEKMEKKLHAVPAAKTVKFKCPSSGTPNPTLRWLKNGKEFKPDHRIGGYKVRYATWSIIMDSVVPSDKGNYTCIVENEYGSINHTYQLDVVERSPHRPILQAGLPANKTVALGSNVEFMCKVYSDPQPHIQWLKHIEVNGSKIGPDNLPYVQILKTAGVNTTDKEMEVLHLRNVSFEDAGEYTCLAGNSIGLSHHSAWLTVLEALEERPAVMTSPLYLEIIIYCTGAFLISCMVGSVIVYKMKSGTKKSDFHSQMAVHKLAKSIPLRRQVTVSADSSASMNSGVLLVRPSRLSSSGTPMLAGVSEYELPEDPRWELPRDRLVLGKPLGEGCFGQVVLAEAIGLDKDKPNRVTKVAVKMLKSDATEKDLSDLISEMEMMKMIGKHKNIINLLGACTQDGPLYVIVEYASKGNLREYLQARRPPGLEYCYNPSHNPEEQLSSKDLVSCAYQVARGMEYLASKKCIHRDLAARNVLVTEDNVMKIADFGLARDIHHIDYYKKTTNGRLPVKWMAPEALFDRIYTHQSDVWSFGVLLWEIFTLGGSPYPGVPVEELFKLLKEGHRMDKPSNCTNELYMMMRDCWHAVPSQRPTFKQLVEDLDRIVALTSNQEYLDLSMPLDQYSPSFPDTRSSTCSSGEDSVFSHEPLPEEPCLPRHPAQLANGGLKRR
Briefly: FGFR-1 wild type assay at Km (Caliper mobility shift). It is filed as biochemical. The following applies: 400 uM ATP, 25 C, 90 minutes; read-out: FGFR1 IC50. On the procedure:
as §1
The reaction was stopped by the addition of 70 ul of Stop buffer (100 mM HEPES pH 7.5, 0.015% Brij 35, 35 mM EDTA and 0.2% of Coating Reagent 3 (Caliper Lifesciences)). The plate was then read on a Caliper EZReader 2 (protocol settings: —1.9 psi, upstream voltage—700, downstream voltage—3000, post sample sip 35 s).

The target in a further series is FGFR-4 (Homo sapiens, UniProt P22455). Briefly: Crystal structure of compound bound to FGFR-4 (Cys552). It is filed as binding. The following applies: FIG. 4, FIG. 5.
Chain of FGFR-4 (P22455 22-802): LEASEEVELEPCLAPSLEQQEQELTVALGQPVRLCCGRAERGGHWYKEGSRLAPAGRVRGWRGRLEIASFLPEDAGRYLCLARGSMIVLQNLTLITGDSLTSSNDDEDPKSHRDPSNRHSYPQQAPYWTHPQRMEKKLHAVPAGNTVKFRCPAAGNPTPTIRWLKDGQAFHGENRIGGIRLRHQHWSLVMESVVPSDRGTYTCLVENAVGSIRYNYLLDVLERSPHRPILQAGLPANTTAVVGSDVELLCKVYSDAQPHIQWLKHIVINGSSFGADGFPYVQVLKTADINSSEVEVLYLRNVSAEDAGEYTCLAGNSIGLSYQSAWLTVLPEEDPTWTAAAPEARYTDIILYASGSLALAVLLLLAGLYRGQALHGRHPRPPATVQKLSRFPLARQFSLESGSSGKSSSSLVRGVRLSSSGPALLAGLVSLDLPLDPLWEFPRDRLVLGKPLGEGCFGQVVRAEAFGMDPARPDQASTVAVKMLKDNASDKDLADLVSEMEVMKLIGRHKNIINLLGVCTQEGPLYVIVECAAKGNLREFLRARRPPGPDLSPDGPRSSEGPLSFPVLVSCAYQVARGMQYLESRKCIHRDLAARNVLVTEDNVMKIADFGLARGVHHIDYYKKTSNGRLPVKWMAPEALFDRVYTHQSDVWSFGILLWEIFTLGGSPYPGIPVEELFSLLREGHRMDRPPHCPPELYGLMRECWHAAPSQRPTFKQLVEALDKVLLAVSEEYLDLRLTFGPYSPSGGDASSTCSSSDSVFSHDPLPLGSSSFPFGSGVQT
In the next series the test system is Hep3B xenograft tumors. Kind of series: Hep3B liver cancer cell subcutaneous xenograft model, tumor volume. The format is in vivo, Mus Musculus. On the procedure:
[…] female nude mice (Mus Musculus) age 6 to 8 weeks were used. Tumor cell culture and inoculation: Hep3B cells were cultured with EMEM medium (Invitrogen, USA) supplemented with 10% FBS (Gibco, Australia). The cells were harvested in 90% confluence, and the viability was no less than 90%. Mice were implanted subcutaneously (s.c.) with 200 μL of 10×10^6 Hep3B cells in 50% Matrigel in the right flank at the beginning of the study.
Animal grouping and dosing schedule: Ten days after cell implantation, when tumors reached an average volume of 199 mm^3, 45 mice were selected based on tumor volume and randomly assigned to 5 treatment groups (n=9). The day of randomization was denoted as D0 and the treatment was started from then on.
(§2) Tumor volume and body weight measurements: Tumor size was measured twice per week in two dimensions using a caliper, and the volume was expressed in mm^3 using the formula: V=0.5 a×b^2 where a and b were the long and short diameters of the tumor, respectively. Body weight was measured at least twice weekly.
End of in vivo portion: Blood, tumors and livers were collected from 3 mice in each treated group at 4, 12 and 24 hours after the last dose. The left lobe of the liver was collected for pharmacodynamic (PD) studies, and the rest of the liver was stored in formalin for histology. The small tumors were prioritized for use in pharmacokinetic studies. Any remaining tumor was fixed for histological analysis first, and then was snap-frozen for the PD study.

The test system of another series is Hep3B cells. Briefly: Induction of apoptosis (Caspase-Glo3/7) in Hep3B cells. The format is cell-based. The settings on record: 6 hours, FIG. 3. As for the experimental part:
Hep3B cells were seeded at 20 k/well in 96-well white plates in 200 ul of DMEM/5% FBS overnight. The next day compound was added at a final DMSO concentration of 0.1% and incubated for 6 hours. Caspase activity was measured according to manufacture instruction (Caspase-Glo3/7 Assay (Promega)). Briefly, 100 ul of Caspase-Glo3/7 reagent was added to each well and incubated for 1 hour in the dark. Luminescence was measured using EnVision.

The format of series [1] is in vivo. The following applies: 100 and 300 mg/kg PO BID, nude mice. As for the experimental part: as §2
Body weight change (%) of Hep3B-bearing nude mice: FIG. 8 is a line graph depicting the body weight change (%) during the entire study period.

T1 sequence (P22455 22-802): as above

The IC50 is the midpoint of a concentration-inhibition curve. Consider `C=CC(=O)Nc1cccc(F)c1Nc1cc2c(cn1)cc(-c1c(Cl)c(OC)cc(OC)c1Cl)c(=O)n2C` [COMPOUND 46], for which the “Ratio FGFR1/FGFR4” value at wild type FGFR-4 was “E (the ratio is ≧10 and <50)”. The half-inhibitory concentration (IC50) at wild type FGFR-1 fell in the range of 100 to 1000 nM.

Consider `C=CC(=O)Nc1cccc(C)c1Nc1ncc2c(n1)N(C)C(=O)N(c1c(Cl)c(OC)cc(OC)c1Cl)C2` [COMPOUND 48, N-(2-((6-(2,6-dichloro-3,5-dimethoxyphenyl)-8-methyl-7-oxo-5,6,7,8-tetrahydropyrimido[4,5-d]pyrimidin-2-yl)amino)-3-methylphenyl)acrylamide], for which the “Ratio FGFR1/FGFR4” value on wild type FGFR-4 was “E (the ratio is ≧10 and <50)”. Besides, the 50% inhibitory concentration (IC50) at wild type FGFR-1 was 100 to 1000 nM.

`C=CC(=O)N(C)c1ncc2cc(-c3c(Cl)c(OC)cc(OC)c3Cl)c(=O)n(C)c2n1` [COMPOUND 12]: the “Ratio FGFR1/FGFR4” value at wild type FGFR-4 is “D (the ratio is ≧50 and <100)”. In addition, the IC50 on wild type FGFR-1 is 10 to 100 nM.

Consider `C=CC(=O)Nc1ccccc1-c1ccn2c(-c3cc(NC(=O)NCC(F)(F)F)cc(OC(C)C)c3)cnc2c1` [COMPOUND 38, N-(2-(3-(3-isopropoxy-5-(3-(2,2,2-trifluoroethyl)ureido)phenyl)imidazo[1,2-a]pyridin-7-yl)phenyl)acrylamide], for which, on wild type FGFR-4, the concentration for half-maximal inhibition (IC50) lay within 100 to 1000 nM; the “Ratio FGFR1/FGFR4” value is “E (the ratio is ≧10 and <50)”. Besides, on wild type FGFR-1, the concentration for half-maximal inhibition (IC50) is over 1000 nM.

Turning to `C=CC(=O)N(C)c1ncc2cc(-c3cc(OC)cc(OC)c3)c(=O)n(C)c2n1` [COMPOUND 3], at wild type FGFR-4, the half-maximal inhibitory concentration (IC50) lay in the range of 10 to 100 nM and the “Ratio FGFR1/FGFR4” value is “A (the ratio is >500)”. At wild type FGFR-1, the half-inhibitory concentration (IC50) is over 1000 nM.

Consider `C=CS(=O)(=O)Nc1cccc(C)c1Nc1ncc2cc(-c3c(Cl)c(OC)cc(OC)c3Cl)ccc2n1` [COMPOUND 49A], for which, on wild type FGFR-4, the IC50 lay in the range of 10 to 100 nM; the “Ratio FGFR1/FGFR4” value was “E (the ratio is ≧10 and <50)”. The IC50 on wild type FGFR-1 was in the range of 100 to 1000 nM.

Regarding `C=CC(=O)Nc1cccc(F)c1Nc1ncc2cc(-c3c(Cl)c(OC)cc(OC)c3Cl)cc(OC)c2n1` [COMPOUND 47], the “Ratio FGFR1/FGFR4” value at wild type FGFR-4 is “B (the ratio is ≧200 and <500)”. Also, on wild type FGFR-1, the IC50 lay within 10 to 100 nM.

Regarding `C=CC(=O)N(CCCCN(CC)CC)c1ncc2cc(-c3cc(OC)cc(OC)c3)c(NC(=O)NC(C)(C)C)nc2n1` [COMPOUND 52, N-(7-(3-(tert-butyl)ureido)-6-(3,5-dimethoxyphenyl)pyrido[2,3-d]pyrimidin-2-yl)-N-(4-(diethylamino)butyl)acrylamide], the “Ratio FGFR1/FGFR4” value on wild type FGFR-4 is “C (the ratio is ≧100 and <200)”. Also, the IC50 on wild type FGFR-1 fell in the range of 10 to 100 nM. In addition, the “binding site in crystal structure” value on FGFR-4 is “binds to the cysteine at residue 552 of FGFR-4”.

As for `C=CC(=O)Nc1ccccc1Nc1nccc(N2CCN(C(=O)Nc3ccc(C#N)cc3)CC2)n1` [COMPOUND 23], the 50% inhibitory concentration (IC50) is 100 to 1000 nM at wild type FGFR-4 and over 1000 nM at wild type FGFR-1. For the same molecule, on wild type FGFR-4, the “Ratio FGFR1/FGFR4” value is “A (the ratio is >500)”.

Consider `CNC(=O)c1cc(Oc2ccc(NC(=O)Nc3ccc(Cl)c(C(F)(F)F)c3)cc2)ccn1` [Sorafenib, reference compound], for which the “tumor volume compared with vehicle group” value with Hep3B xenograft tumors (30 mg/kg PO QD, Day 4 to Day 19) was “Statistically significant reduction of tumor volumes”.

Take `C=CC(=O)N(C)c1ncc2cc(-c3c(Cl)c(OC)cc(OC)c3Cl)cnc2n1` [COMPOUND 8]: the “Ratio FGFR1/FGFR4” value on wild type FGFR-4 was “E (the ratio is ≧10 and <50)”. Besides, on wild type FGFR-1, the half-inhibitory concentration (IC50) was in the range of 100 to 1000 nM.

As to `C=CC(=O)Nc1ccc(F)c(F)c1Nc1ncc2cc(-c3c(Cl)c(OC)cc(OC)c3Cl)ccc2n1` [COMPOUND 37], at wild type FGFR-4, the “Ratio FGFR1/FGFR4” value is “C (the ratio is ≧100 and <200)”. Moreover, at wild type FGFR-1, the 50% inhibitory concentration (IC50) was 100 to 1000 nM.

`C=CC(=O)Nc1cc(N2CCOCC2)cc(C)c1Nc1ncc2cc(-c3c(Cl)c(OC)cc(OC)c3Cl)ccc2n1` [COMPOUND 53]: the “Ratio FGFR1/FGFR4” value at wild type FGFR-4 was “C (the ratio is ≧100 and <200)”. In addition, the IC50 on wild type FGFR-1 was 100 to 1000 nM.

In the case of `CCN1CCN(c2ccc(Nc3cc(N(C)C(=O)Nc4c(Cl)c(OC)cc(OC)c4Cl)ncn3)cc2)CC1` [BGJ398, reference compound], the “induction of apoptosis (Caspase activity)” value in the series with Hep3B cells is recorded as “induction of apoptosis, although at a higher concentration”. The “tumor volume compared with vehicle group” value in the series on Hep3B xenograft tumors (20 mg/kg PO QD, entire study) was “significant difference in tumor volume between BGJ398 (20 mg/kg PO QD) and vehicle groups was not observed”.

As to `C=CC(=O)Nc1cccc(C)c1Nc1ncc2cc(-c3c(Cl)c(OC)cc(OC)c3Cl)ccc2n1` [COMPOUND 25, N-(2-((6-(2,6-dichloro-3,5-dimethoxyphenyl)quinazolin-2-yl)amino)-3-methylphenyl)acrylamide], the IC50 at wild type FGFR-1 is 100 to 1000 nM. For the same molecule, in the series on Hep3B cells, the “induction of apoptosis (Caspase activity)” value is given as “potent induction of apoptosis”. In addition, the tumor regression result with Hep3B xenograft tumors (100 mg/kg PO BID) is recorded as “regressed”; in the series with Hep3B xenograft tumors (300 mg/kg PO BID) it was “almost disappeared”. Further, the “tumor volume compared with vehicle group” value in the series on Hep3B xenograft tumors (100 mg/kg PO BID, Day 4 to Day 19) is “Statistically significant reduction of tumor volumes”; with Hep3B xenograft tumors (300 mg/kg PO BID, Day 4 to Day 19), “Statistically significant reduction of tumor volumes”. Moreover, the “tolerability (body weight change)” value in series [1] is recorded as “well tolerated”.

As to `C=CC(=O)N(C)c1ncc2nc(-c3cc(OC)cc(OC)c3)c(=O)n(C)c2n1` [COMPOUND 4], on wild type FGFR-4, the half-maximal inhibitory concentration (IC50) lay within 100 to 1000 nM; the “Ratio FGFR1/FGFR4” value is “B (the ratio is ≧200 and <500)”. In addition, the concentration for half-maximal inhibition (IC50) on wild type FGFR-1 was over 1000 nM.

Consider `C=CC(=O)Nc1cccc(F)c1Nc1ncc2cc(-c3c(Cl)c(OC)cc(OC)c3Cl)ccc2n1` [COMPOUND 27], for which the “Ratio FGFR1/FGFR4” value on wild type FGFR-4 was “C (the ratio is ≧100 and <200)”. Further, the IC50 on wild type FGFR-1 was in the range of 10 to 100 nM.

For the molecule `C=CC(=O)Nc1cccc(C(F)(F)F)c1Nc1ncc2cc(-c3c(Cl)c(OC)cc(OC)c3Cl)ccc2n1` [COMPOUND 51], at wild type FGFR-4, the IC50 was in the range of 10 to 100 nM and the “Ratio FGFR1/FGFR4” value was “F (the ratio of [IC50 for FGFR1]/[IC50 for FGFR4] is less than 10)”. In addition, the IC50 at wild type FGFR-1 is over 1000 nM.

With `C=CC(=O)N(C)c1ncc2c(n1)N(C)C(=O)N(c1c(Cl)c(OC)cc(OC)c1Cl)C2` [COMPOUND 14], the results for the IC50 at wild type FGFR-4 and on wild type FGFR-1 were 10 to 100 nM and 100 to 1000 nM, respectively.
